“Also recorded” adds a separate entry of the source.
What was measured:
LNCaP cells = test: EMT marker / RANKL expression and signaling by RT-PCR and Western blot, LNCaP model; format: cell-based, human; settings: 20 μM cMyc inhibitor
Protocol: Total RNA from cells was isolated using RNeasy Mini Kit (Qiagen, Valencia, Calif.) according to manufacturer's instructions. Complementary DNA (cDNA) was generated from 3 μg of total RNA using SuperScript® III First-Strand Synthesis System (Invitrogen, Carlsbad Calif.), and 1 μl of cDNA was subjected to PCR analyses using the following primers: RANKL F: 5′-TGGATCACAGCACATCAGAGCAG-3′ (SEQ ID NO:3); RANKL R: 5′-TGGGGCTCAATCTATATCTCGAAC-3′ (SEQ ID NO:4); RANK F: 5′-GGGAAAGCACTCACAGCTAATTTG-3′ (SEQ ID NO:5); RANK R: 5′-GCACTGGCTTAAACTGTCATTCTCC-3′ (SEQ ID NO:6); OPG F: 5′-GCT AAC CTC ACC TTC GAG-3′ (SEQ ID NO:7); OPG R: 5′-TGA TTG GAC CTG GTT ACC-3′ (SEQ ID NO:8); E-cadherin F: 5′-GCCAAGCAGCAGTACATTCTACACG-3′ (SEQ ID NO:9); E-cadherin R: 5′-GCTGTTCTTCACGTGCTCAAAATCC-3′ (SEQ ID NO:10); N-cadherin F: 5′-GATGTTGAGGTACAGAATCGT-3′ (SEQ ID NO:11); N-cadherin R: 5′-GGT CGG TCT GGA TGG CGA-3′ (SEQ ID NO:12); Snail F: 5′-CAGACCCACTCAGATGTCAA-3′ (SEQ ID NO:13); Snail R: 5′-CATAGTTAGTCACACCTCGT-3′ (SEQ ID NO:14); Vimentin F: 5′-GGA CTC GGT GGA CTT CTC-3′ (SEQ ID NO:15); Vimentin R: 5′-CGC ATC TCC TCC TCG TAG-3′ (SEQ ID NO:16). The PCR reaction cycles involved an initial denaturation at 94° C. for 10 min, followed by 36 cycles of 94° C., 1 min; 55° C., 30 sec for RANKL and RANK and 48° C., 1 min for OPG; 72° C., 1 min and a final extension at 72° C. for 10 min. For E-cadherin and N-cadherin gene amplification, the PCR reactions ran for a total of 32 cycles and the annealing temperature was 55° C. and 47° C., respectively for 30 sec. For Snail, Vimentin, and GAPDH amplification, the PCR reactions ran for a total of 28 cycles with annealing temperatures at 48° C. for 30 sec. The amplified PCR products were detected and analyzed on 1% agarose gel.
(§1) ARCaPE and LNCaP cells were cultured in 6-well plate and at 70% confluency, the cells were serum-starved overnight and then treated with 200 ng/ml of trimerized RANKL in serum-free and phenol-red free RPMI-1640 medium for three days before harvesting the cells. ARCaPE-RANKL and LNCaP-RANKL cells were cultured in 6-well plate and treated with 20 μM of LY294002, a PI3K inhibitor, 20 μM of SB203580, an inhibitor of MAP kinase reactivating kinase, or 2 μM of PS341 (bortezomib), a proteasome inhibitor, at 90% confluency for four hours. Cells were lysed in RIPA buffer containing 1× protease inhibitor cocktail (Thermo Fisher Scientific, Waltham, Mass.) and centrifuged, and the supernatants were collected and quantified using Bradford Protein Assay (Thermo Fisher Scientific, Waltham, Mass.). Cell lysates (20-30 μg) were resolved on a 4-12% Bis-Tris gradient SDS-PAGE (Invitrogen, Carlsbad, Calif.) under reducing conditions, followed by transblotting onto nitrocellulose membrane (BioRad, Hercules, Calif.). The membranes were blocked in 5% non-fat milk in PBST for one hour at room temperature (RT) and incubated with diluted primary antibodies in blocking buffer at 4° C. overnight. The primary antibodies used were RANKL, E-cadherin, vimentin, and OPG (Santa Cruz Biotechnology, Inc., Santa Cruz, Calif.), RANK (Amgen, Thousand Oaks, Calif.), N-cadherin (BD Transduction Laboratories, San Jose, Calif.), phosphor-Akt (Ser 473), Akt, phosphor-p38 (Thr180/Tyr182), p38, phosphor-ERK1/2 (Thr202/Tyr204), ERK, phosphor-SAPK/JNK (Thr183/Tyr185), JNK, phosphor-NF-κB p65 (Ser536), and NF-κB p65 (Cell Signaling Technology, Danvers, Mass.). The membranes were washed with PBST for three times before incubating with peroxidase-conjugated anti-mouse or anti-rabbit secondary antibodies at RT for one hour. After three times washing, the membranes were visualized using ECL Plus reagent (GE Healthcare, Piscataway, N.J.).

[1] = system: RANKL promoter in LNCaP and LNCaP-RANKL cells; test: RANKL promoter reporter assay, LNCaP model; format: cell-based, human; settings: for RANKL promoter activities in LNCaP cells: vitamin D3 and PTH stimulation
ARCaPE-RANKL cells = test: Pathway inhibitor treatment followed by Western blot analysis, ARCaPE-RANKL; format: cell-based, human
Protocol: as §1

LNCaP-RANKL cells = test: Pathway inhibitor treatment followed by Western blot analysis, LNCaP-RANKL; format: cell-based, human; settings: 4 h
Protocol: ARCaPE and LNCaP cells were cultured in 6-well plate and at 70% confluency, the cells were serum-starved overnight and then treated with 200 ng/ml of trimerized RANKL in serum-free and phenol-red free RPMI-1640 medium for three days before harvesting the cells. ARCaPE-RANKL and LNCaP-RANKL cells were cultured in 6-well plate and treated with 20 μM of LY294002, a PI3K inhibitor, 20 μM of SB203580, an inhibitor of MAP kinase reactivating kinase, or 2 μM of PS341 (bortezomib), a proteasome inhibitor, at 90% confluency for four hours. Cells were lysed in RIPA buffer containing 1× protease inhibitor cocktail (Thermo Fisher Scientific, Waltham, Mass.) and centrifuged, and the supernatants were collected and quantified using Bradford Protein Assay (Thermo Fisher Scientific, Waltham, Mass.). Cell lysates (20-30 μg) were resolved on a 4-12% Bis-Tris gradient SDS-PAGE (Invitrogen, Carlsbad, Calif.) under reducing conditions, followed by transblotting onto nitrocellulose membrane (BioRad, Hercules, Calif.). The membranes were blocked in 5% non-fat milk in PBST for one hour at room temperature (RT) and incubated with diluted primary antibodies in blocking buffer at 4° C. overnight. […]

[2] = system: RANKL promoter in ARCaPE, ARCaPM and ARCaPE-RANKL cells; test: RANKL promoter reporter assay, ARCaP model; format: cell-based, human; settings: vitamin D3 and PTH stimulation
Source text: (§2) Because the inventors are interested in how RANKL is transcriptionally regulated, the inventors have constructed a 2.5 kb 5′ upstream region of RANKL promoter. The inventors used BAC clones (RP11-86N24) to amplify the promoter region of RANKL from human chromosome 13 contig. The whole promoter region (2.5 kb) was then cloned into pGL3 basic luciferase reporter vector. The inventors placed RANKL promoter reporter into ARCaPE,M, C4-2, and a positive cell line, SaOS-2 to examine the basic promoter activity. Then, the inventors stimulated the RANKL promoter by various growth factors, such as vitamin D3, PTH, and TGFβ.

[3] = system: RANKL promoter in human osteosarcoma SaOS-2 cells; test: RANKL promoter reporter assay, SaOS-2; format: cell-based; settings: exogenous PTH and vitamin D3
Source text: as §2

cMet in LNCaP cells = test: cMet expression and phosphorylation (Western blot), LNCaP; format: cell-based, human
cMet in ARCaPE cells = test: cMet expression and phosphorylation (Western blot), ARCaPE; format: cell-based, human; settings: exogeneous RANKL or HGF treatment
[4] = system: RANKL-expressing prostate cancer cells; test: Stem cell and neuroendocrine marker expression; format: cell-based
[5] = system: castration-resistant prostate cancer (CRPC) with bone metastasis; prostate or breast cancers; settings: cited from earlier work
[6] = target: Flag-tagged RANKL stably expressed in LNCaP cells (LNCaP-RANKL); test: cell-based or functional assay
[7] = target: GFP-tagged RANKL stably expressed in ARCaPE cells (ARCaPE-RANKL); test: cell-based or functional assay
[8] = 20 μM LY294002 or 2 μM PS341, 4 h
[9] = men with clinical progressive prostate or breast cancers

For `CCc1ccc(/C=C2/SC(=S)NC2=O)cc1` [10058-F4, reference compound], the “RANKL protein expression in LNCaP-RANKL cells or LNCaP cells treated with RANKL” value (LNCaP cells) was “significantly decreased” and the “RANKL transcriptional activity in LNCaP-RANKL cells or LNCaP cells treated with RANKL” value ([1]; 20 μM cMyc inhibitor) was “significantly decreased”.

In the case of `CC(C)C[C@H](NC(=O)[C@H](Cc1ccccc1)NC(=O)c1cnccn1)B(O)O` [PS341, bortezomib], the “RANKL-induced EMT in ARCaPE-RANKL cells” value (ARCaPE-RANKL cells; 2 μM, 4 h) is reported as “prevented”, the “E-cadherin expression in ARCaPE-RANKL cells” value (ARCaPE-RANKL cells; [8]) is reported as “increased” and the “vimentin and RANKL expression in ARCaPE-RANKL cells” value (ARCaPE-RANKL cells; [8]) is reported as “decreased”. The “RANKL-induced EMT in LNCaP-RANKL cells” value (LNCaP-RANKL cells; 2 μM) was “prevented”.

In the case of `C[S+]([O-])c1ccc(-c2nc(-c3ccncc3)c(-c3ccc(F)cc3)[nH]2)cc1` (stereo not shown) [SB203580], the “phosphorylated level of P65 in ARCaPE-RANKL cells” value (ARCaPE-RANKL cells; 20 μM, 4 h) is reported as “reduction” and the “phosphorylated level of P65 in LNCaP-RANKL cells” value (LNCaP-RANKL cells; 20 μM) is reported as “reduction”.

With `C=C1CC[C@H](O)C/C1=C/C=C1\CCC[C@]2(C)[C@@H]([C@H](C)CCCC(C)C)CC[C@@H]12` [vitamin D3, reference compound] the “RANKL promoter activities in LNCaP cells” value [1] was “induced”, the “RANKL promoter activities in ARCaPE cells” value [2] was “induced” and the “RANKL transcriptional (promoter) activity in SaOS-2 cells” value [3] was “induced; also recorded: up-regulated”.

For “HGF: HGF, exogenous treatment activating c-Met”, the “p-c-Met expression of the RANKL-induced c-Met” value (cMet in LNCaP cells; addition of HGF) was “increased”, the “cMet expression and phosphorylated level of cMet in LNCaP cells” value (cMet in LNCaP cells; exogeneous RANKL or HGF treatment) was “significantly increased” and the “cMet expression and phosphorylated level of cMet in ARCaPE cells” value (cMet in ARCaPE cells) was “significantly increased”.

In the case of denosumab, the “expression of neuroendocrine markers” value [4] is listed as “blocked”, the “expression of stem cell markers” value [4] is listed as “antagonized” and the “osteonecrosis (undesirable side effects)” value ([5]; human, in vivo) is listed as “reported in some patients”. For the same molecule, the “patients' survival” value [5, 9] was “improved”, the skeletal related events [5, 9] was “reduced” and the “progression of castration-resistant prostate cancer (CRPC)” value ([5]; patients with bone metastasis) was “delay or prevent”.

With recombinant osteoprotegerin (OPG) the formation of mature osteoclasts (TRAP+ multinucleated cells) in co-culture of RAW264.7 with LNCaP-RANKL cells [6] was 2 fold.

Molecule “recombinant osteoprotegerin (OPG) (receptor)” has a formation of mature osteoclasts (TRAP+ multinucleated cells) in co-culture of RAW264.7 with ARCaPE-RANKL cells [7] of 2 fold.

B1: parathyroid hormone (protein, UniProt P01270 32-115, looked up)
Parathyroid hormone: SVSEIQLMHNLGKHLNSMERVEWLRKKLQDVHNFVALGAPLAPRDAGSQRPRKKEDNVLVESHEKSLGEADKADVNVLTKAKSQ
modifications: Parathyroid hormone
For B1, the “RANKL promoter activities in LNCaP cells” value [1] was “induced”, the “RANKL promoter activities in ARCaPE cells” value [2] was “induced” and the “RANKL transcriptional (promoter) activity in SaOS-2 cells” value [3] was “induced; also recorded: up-regulated”.
